From PMC7072245, “Macromolecular Crowding Increases the Affinity of the PHD of ING4 for the Histone H3K4me3 Mark” (Biomolecules, 2020)
Where two headings read alike, the source gives them in different places. Values belong to the molecule of their own block, whether it stands above or below them. Where no end group is shown, it is not given here. [ ]: non-standard residue; d: D form. Lys(Me3) = C[N+](C)(C)CCCC[C@H](N)C(=O)O; Lys(Me2) = CN(C)CCCC[C@H](N)C(=O)O

Experiments:
PHD of ING4 = biological target: T1, PHD of ING4 (Homo sapiens, UniProt Q9UNL4); experiment: NMR titration of ING4-PHD with histone H3 peptides (CSP of W237 amide, 1H-15N HSQC); type: binding
T1 construct: we did the titration by NMR on a sample of 10 µM PHD of ING4
Procedure: These contained 50 or 10 µM uniformly -^15N enriched PHD in 20 mM sodium phosphate pH 6.5, 50 mM NaCl, 1 mM perdeuterated dithiotreitol, 5% (v/v) ^2H2O, and 0.01% (w/v) NaN3, plus different concentrations of Ficoll 70. […] Thus, the NMR titrations were completed in less than 24 h. NMR spectra were recorded at 25 °C on a BRUKER Avance III 800 spectrometer equipped with a TCI cryogenically cooled probe. At a concentration of 50 µM PHD, ^1H-^15N Heteronuclear Single Quantum Coherence (HSQC) spectra could be recorded in about 2 h with sufficient quality to measure the chemicals shift perturbations on peptide addition. At 10 µM PHD concentration, HSQC were recorded with only 16 t1 points and a ^15N spectral width of 10 ppm. […] In this way, the full titration of ING4-PHD with the histone peptide could be measured in less than 24 h.
Next, we measured the affinity of the binding in presence of Ficoll, by means of a NMR titration of the PHD with H3K4me3 peptide but in presence of 15% Ficoll (Figure 2). For binding analysis, we used the backbone amide signal of amino acid W237 because it experiences a large CSP upon peptide binding and is well isolated in a region of the spectrum with few other signals. […] This makes it necessary to reduce the protein concentration of the experiment.
On the other hand, the presence of 15% Ficoll 70 lowered the signal to noise ratio of the NMR experiment as signals got broader due to the increased viscosity of sample. So, we had to decrease the protein concentration of the experiment but not so much as to lose the signals in the noise. […] In these conditions, we could record ^1H-^15N HSQC experiments in 2 h and complete the titration in less than 1 day.
Once we got the optimum conditions, we did the titration by NMR on a sample of 10 µM PHD of ING4 in the presence of increasing amounts of H3K4me3 peptide (Figure 3).
Titrations at different percentages of Ficoll (0, 5, and 10 %) were done by NMR in a same manner as the titration at 15% Ficoll.

[1] = biological target: T2, Plant Homeodomain (PHD) of ING4 (uniformly 15N enriched (NMR samples)); experiment: NMR titration; 10 µM 15N PHD titrated with peptide, 15% Ficoll 70; 20 mM sodium phosphate pH 6.5, 50 mM NaCl, 1 mM DTT, 25 °C; CSP of W237 amide in 1H-15N HSQC, single site fit; details: both partners purified
T2 chain: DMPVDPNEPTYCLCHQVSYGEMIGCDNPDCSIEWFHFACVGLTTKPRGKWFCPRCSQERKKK

[2] = biological target: T2, Plant Homeodomain (PHD) of ING4; experiment: NMR titration; PHD titrated with peptide, 0% Ficoll 70; 20 mM sodium phosphate pH 6.5, 50 mM NaCl, 1 mM DTT, 25 °C; CSP of W237 amide; details: both partners purified

Molecule: CNCCCC[C@H](NC(=O)[C@@H](NC(=O)[C@H](CCCNC(=N)N)NC(=O)[C@H](C)N)[C@@H](C)O)C(=O)N[C@@H](CCC(N)=O)C(=O)N[C@H](C(=O)N[C@@H](C)C(=O)N[C@@H](CCCNC(=N)N)C(=O)N[C@@H](CCCCN)C(=O)N[C@@H](CO)C(=O)N[C@H](C(=O)NCC(=O)NCC(=O)N[C@@H](CCCCN)C(=O)N[C@@H](C)C(=O)N[C@@H](Cc1ccc(O)cc1)C(=O)O)[C@@H](C)O)[C@@H](C)O [H3K4me1]
Kd (PHD of ING4): 12000 ± 4000 nM

Molecule: C[C@H](N)C(=O)N[C@@H](CCCNC(=N)N)C(=O)N[C@H](C(=O)N[C@@H](CCCCN(C)C)C(=O)N[C@@H](CCC(N)=O)C(=O)N[C@H](C(=O)N[C@@H](C)C(=O)N[C@@H](CCCNC(=N)N)C(=O)N[C@@H](CCCCN)C(=O)N[C@@H](CO)C(=O)N[C@H](C(=O)NCC(=O)NCC(=O)N[C@@H](CCCCN)C(=O)N[C@@H](C)C(=O)N[C@@H](Cc1ccc(O)cc1)C(=O)O)[C@@H](C)O)[C@@H](C)O)[C@@H](C)O [H3K4me2]
Kd (PHD of ING4): 1400 ± 600 nM

Molecule: C[C@H](N)C(=O)N[C@@H](CCCNC(=N)N)C(=O)N[C@H](C(=O)N[C@@H](CCCC[N+](C)(C)C)C(=O)N[C@@H](CCC(N)=O)C(=O)N[C@H](C(=O)N[C@@H](C)C(=O)N[C@@H](CCCNC(=N)N)C(=O)N[C@@H](CCCCN)C(=O)N[C@@H](CO)C(=O)N[C@H](C(=O)NCC(=O)NCC(=O)N[C@@H](CCCCN)C(=O)N[C@@H](C)C(=O)N[C@@H](Cc1ccc(O)cc1)C(=O)O)[C@@H](C)O)[C@@H](C)O)[C@@H](C)O [H3K4me3]
Kd (PHD of ING4): 400 ± 300 nM
Kd (PHD of ING4; absence of Ficoll (0%), NMR, 20 mM sodium phosphate pH 6.5, 50 mM NaCl, 25 °C, read-out: KD): 3900 ± 700 nM

Continued, values first:

Kd [1]: 100000 ± 10000 nM
B1: histone H3 peptide (residues 1-15 plus C-terminal Tyr), unmethylated at lysine 4 (peptide)
peptide: ARTKQTARKSTGGKAY
notes: histone H3 N-terminal tail, residues 1-15; extra Tyr residue at the C-terminus for concentration measurement by UV absorbance; also called H3K4me0; unmethylated histone H3 tail

Kd [1]: 400 ± 300 nM
Kd [2]: 3.9 ± 0.7 µM
B2: histone H3 peptide (residues 1-15 plus C-terminal Tyr) trimethylated at lysine 4 (peptide)
peptide: ART[Lys(Me3)]QTARKSTGGKAY
notes: histone H3 N-terminal tail, residues 1-15; extra Tyr residue at the C-terminus for concentration measurement by UV absorbance; also called H3K4me3; H3K4me3 peptide

Kd [1]: 1400 ± 600 nM
B3: histone H3 peptide (residues 1-15 plus C-terminal Tyr) dimethylated at lysine 4 (peptide)
peptide: ART[Lys(Me2)]QTARKSTGGKAY
notes: histone H3 N-terminal tail, residues 1-15; extra Tyr residue at the C-terminus for concentration measurement by UV absorbance; also called H3K4me2
